Laboratory results taken from patent publication US20240239848A1, “HOLOTHURIAN-DERIVED ACTIVE PEPTIDE WITH IMMUNE ACTIVITY, PREPARATION METHOD AND APPLICATION THEREOF” (BOHAI UNIVERSITY, priority 2023, published 2024).
No end group written: not given here.

What was measured:
Format in all cases: cell-based, mouse
IL-1β = IL-1β secretion of macrophage RAW264.7 induced by LPS (ELISA); conditions: LPS-induced RAW264.7, peptide 200 μg/mL
Method: (§1) (2) Influence of IIENAVQ on the secretion of cytokines (IL-1β, TNF-α) of macrophage RAW264.7 induced by LPS
(§2) Blank group: macrophage RAW264.7 cells are inoculated into a 96-well plate and cultured for 24 h.
(§3) Induced injury group: after the cells in the blank group are cultured, the cells are treated with 100 ng/mL LPS for 24 h, and then treated with different concentrations (50-200 μg/mL) of IIENAVQ for 24 h.
(§4) Negative control group: after cell culture in blank group, cells are treated with 100 ng/mL LPS for 24 h.
(§5) The cytokines of different components are determined by ELISA kit.
(§6) The final detection results of (1) and (2) are illustrated in FIG. 4A and FIG. 4B.

macrophage RAW264.7 = assay: Survival rate of macrophages RAW264.7 (CCK-8 method); conditions: RAW264.7, synthetic peptide 50-200 μg/mL, 24 h
Method: Blank group: Macrophages RAW264.7 are inoculated into 96-well plates and cultured for 24 h.
Sample group: synthetic peptides with different concentrations (50-200 μg/mL) are used for treating for 24 h.
The CCK-8 method is used to measure the absorbance values of different components, and the survival rate of macrophage RAW264.7 is calculated according to the absorbance values.

TNF-α = TNF-α secretion of macrophage RAW264.7 induced by LPS (ELISA); conditions: LPS-induced RAW264.7, peptide 200 μg/mL
Method: as §1, §2, §3, §4, §5, §6

[1] = tested on: macrophage RAW264.7 induced by LPS; assay: NO release from macrophage RAW264.7 induced by LPS (NO kit)
Method: (2) Influence of Synthetic Peptide on NO Release from Macrophage RAW264.7 Induced by LPS
as §2
Induced injury group: after cell culture, cells in blank group are treated with 100 ng/ml LPS for 24 h, and then treated with synthetic peptides with different concentrations (50-200 μg/mL) for 24 h.
as §4
The NO release amount of different components is measured by NO kit. After 24 hours of treatment with synthetic peptides with different concentrations, the NO release amount of macrophage RAW264.7 induced by LPS is shown in FIG. 3.

IIENAVQ [IIENAVQ]
inhibition rate of IL-1β secretion (IL-1β): 51.54% | secretion of cytokine IL-1β (IL-1β): 28.73 ± 1.12 pg/mL | cell survival rate (macrophage RAW264.7): 116.88% | inhibition rate of TNF-α secretion (TNF-α): 60.24% | secretion of cytokine TNF-α (TNF-α): 70.78 ± 5.55 pg/mL | release of NO from macrophages RAW264.7 induced by LPS, compared with LPS-negative control group ([1]; 100 ng/mL LPS 24 h, then peptide 50-200 μg/mL 24 h): significantly reduces | final concentration of NO ([1]; LPS-induced RAW264.7, peptide 200 μg/mL): 27.99 ± 0.33 µmol/L
